Among the data in paper PMC11118514, “Eminent Antimicrobial Peptide Resistance in Zymomonas mobilis: A Novel Advantage of Intrinsically Uncoupled Energetics” (Antibiotics, 2024) are MIC and Normalized inhibitory concentration values, retold here.

Assay [1] relates to E. coli. To be noted: cited from earlier work. From the text:
Table 1 Minimal inhibitory concentrations (MICs) of AMPs against selected bacteria, μg/mL. | column: From / E. coli

Assay [2] deals with E. Cancerogenus. The settings on record: cited from earlier work. From the text:
Table 1 Minimal inhibitory concentrations (MICs) of AMPs against selected bacteria, μg/mL. | column: From / E. Cancerogenus

Assay [3] deals with P. aeroginosa. The settings on record: cited from earlier work. From the text: Table 1 Minimal inhibitory concentrations (MICs) of AMPs against selected bacteria, μg/mL. | column: From / P. aeroginosa
The test system of assay [4] is K. pneumonia. The settings on record: cited from earlier work. From the text: Table 1 Minimal inhibitory concentrations (MICs) of AMPs against selected bacteria, μg/mL. | column: From / K. pneumonia
The test system of assay [5] is E. faecium. The settings on record: cited from earlier work. An excerpt:
Table 1 Minimal inhibitory concentrations (MICs) of AMPs against selected bacteria, μg/mL. | column: From / E. faecium

Assay [6] deals with S. aureus. The settings on record: cited from earlier work. From the text:
Table 1 Minimal inhibitory concentrations (MICs) of AMPs against selected bacteria, μg/mL. | column: From / S. aureus

The subject of assay [7] is P. acne. To be noted: cited from earlier work. From the text: Table 1 Minimal inhibitory concentrations (MICs) of AMPs against selected bacteria, μg/mL. | column: From / P. acne
For assay [8], the system named is Z. mobilis. It counts as cell-based, Zymomonas mobilis. As for the experimental part:
Z. mobilis strains, Zm6 (ATCC 29191), E. coli (ATCC 25404) and an S. aureus strain (DSM 20231) were subjected to screening for AMP resistance. Z. mobilis strains were routinely grown on the standard culture medium containing (per liter) 5 g of yeast extract, 1 g of KH2PO4, 1 g of (NH4) 2SO4, and 0.5 g of MgSO4·7H2O, supplemented with 40 mL of 50% glucose solution. E. coli was grown on LB medium, containing (per liter) 10 g of tryptone, 5 g of yeast extract, and 10 g of NaCl. S. aureus was grown on Mueller Hinton Broth, 21 g per 1 L, at 30 °C.
(§1) The quantification of antimicrobial resistance against various AMPs was conducted by monitoring the bacterial growth in the presence of peptides at serial dilutions. This assay was performed in 96-well plates using the Infinite® M200 PRO Multimode Microplate Reader from Tecan in Maennedorf, Switzerland, as described in our recent report. All bacterial strains were cultivated at 32 °C for 13–18 h at 200 rpm. Optical density measurements (λ = 550 nm) were automatically recorded at 10 min intervals. The antimicrobial resistance activity was quantified as the minimum inhibitory concentration (MIC), which represents the lowest peptide concentration capable of preventing the growth of bacterial cells.

The subject of assay [9] is E. coli. Briefly: Normalized inhibitory concentration (peptide molecules per cell). It counts as cell-based, Escherichia coli. To be noted: added AMP normalized to inoculum size, calculated with E. coli cell size parameters.
Description: (§2) We noted, however, that there was a substantial difference between the specific cultivation conditions of Z. mobilis and the rest of the tested bacteria: Z. mobilis required a higher concentration of inoculum. A higher amount of biomass introduced at the start of cultivation might mitigate the antimicrobial effect of AMPs, since this decreases the number of peptide molecules available to penetrate the membrane of each individual cell. Indeed, it was shown that at least […] bound peptide molecules per bacterial cell are needed to kill it. […] For these experiments, we chose one Gram-positive and one Gram-negative model strain (S.aureus and E.coli, respectively) and two AMPs, RP556 and R10. […]
as §1, with “All bacterial strains were cultivated at 32 °C for 13–18 h at 200 rpm.” left out

For assay [10], the system named is S. aureus. Described as above. It counts as cell-based. The settings on record: added AMP normalized to inoculum size, calculated with E. coli cell size parameters.
Description: as §2
as §1, with “All bacterial strains were cultivated at 32 °C for 13–18 h at 200 rpm.” left out

For assay [11], the system named is Z. mobilis. The assay is described as above. In kind it is cell-based, Zymomonas mobilis. The settings on record: added AMP normalized to inoculum size, calculated with E. coli cell size parameters.
Description: as §2
as §1, with “All bacterial strains were cultivated at 32 °C for 13–18 h at 200 rpm.” left out

≈ marks a conversion by molar mass, not a printed value. Where a SMILES comes first, the peptide text is derived from it. Where no end group is shown, it is not given here.

For VKRWKKWWRKWKKWV [LZ1], the MIC in [1] is 31.0 µg/mL; in [2], 16.0 µg/mL; in assay [3], 8.0 µg/mL; in assay [4], 16.0 µg/mL; in assay [5], 4.0 µg/mL; in assay [6], 2.0 µg/mL. Besides, the MIC in [7] was 8.0 µg/mL.
For FAKALKALLKALKAL [Oligo10], the MIC was 31.0 µg/mL in assay [8]; 16.0 µg/mL in assay [1]; 63.0 µg/mL in [2]; 63.0 µg/mL in [3]; 63.0 µg/mL in assay [4]; 16.0 µg/mL in [5]. Besides, the MIC in assay [6] is 4.0 µg/mL; in [7], 2.0 µg/mL.
On to KKIAKKFWKKFWKFWKIFKK [R10], for which the MIC in assay [8] was 31.0 µg/mL; in assay [1], 2.0 µg/mL; in [2], 16.0 µg/mL; in [3] it was 2.0 µg/mL; in assay [4], 8.0 µg/mL; in assay [5], 4.0 µg/mL. The results for the MIC in [6] and in assay [7] were 4.0 µg/mL and 0.5 µg/mL, respectively. The Normalized inhibitory concentration was 2.30 × 10^7 peptide molecules per cell in assay [9], 1.98 × 10^8 peptide molecules per cell in [10] and 6.58 × 10^9 peptide molecules per cell in [11].
For the molecule `CC(C)C[C@H](NC(=O)[C@H](CS)NC(=O)[C@H](Cc1ccccc1)NC(=O)[C@@H](N)CCCCN)C(=O)N[C@@H](CCCCN)C(=O)N[C@@H](Cc1ccccc1)C(=O)N[C@@H](CS)C(=O)N[C@@H](Cc1ccccc1)C(=O)N[C@@H](CCCCN)C(=O)NCC(=O)N[C@@H](Cc1ccccc1)C(=O)N[C@@H](CS)C(=O)N[C@@H](Cc1ccccc1)C(=O)N[C@@H](CCCCN)C(=O)N[C@@H](C)C(=O)N[C@@H](CS)C(=O)NCC(=O)N[C@@H](CCCCN)C(=O)O` [R11] (H-KFCLKFCFKGFCFKACGK-OH; N-terminus and C-terminus assumed), the MIC in assay [8] is 250.0 µg/mL (≈ 119 µM); in assay [1], 125.0 µg/mL (≈ 59.4 µM); in [2], 63.0 µg/mL (≈ 29.9 µM); in assay [3] it was 63.0 µg/mL (≈ 29.9 µM); in assay [4], 63.0 µg/mL (≈ 29.9 µM); in assay [5], 16.0 µg/mL (≈ 7.6 µM). For the same molecule, the MIC in assay [6] is 16.0 µg/mL (≈ 7.6 µM); in assay [7] it was 0.3 µg/mL (≈ 0.142 µM).
Consider KIAKRIWKRIWKILRRR [PA13], for which the MIC in [8] was 63.0 µg/mL; in assay [1] it was 31.0 µg/mL; in assay [2] it was 16.0 µg/mL; in [3], 16.0 µg/mL; in [4], 16.0 µg/mL; in assay [5], 4.0 µg/mL. The MIC in [6] is 2.0 µg/mL; in [7], 16.0 µg/mL.
As for IAKKFWPKFWKFWKIFKKIA [R13], the MIC is 63.0 µg/mL in assay [8]; 4.0 µg/mL in [1]; 31.0 µg/mL in assay [2]; 4.0 µg/mL in assay [3]; 8.0 µg/mL in assay [4]; 16.0 µg/mL in assay [5]. Further, the MIC in assay [6] is 4.0 µg/mL; in [7], 0.3 µg/mL.
Consider `CC(C)[C@H](NC(=O)[C@H](Cc1ccc(O)cc1)NC(=O)[C@H](Cc1c[nH]c2ccccc12)NC(=O)[C@H](CS)NC(=O)[C@H](Cc1ccccc1)NC(=O)CN)C(=O)N[C@@H](CS)C(=O)N[C@@H](C)C(=O)N[C@@H](CCCNC(=N)N)C(=O)N[C@@H](CCCNC(=N)N)C(=O)N[C@@H](CC(N)=O)C(=O)NCC(=O)N[C@@H](C)C(=O)N[C@@H](CCCNC(=N)N)C(=O)N[C@H](C(=O)N[C@@H](CS)C(=O)N[C@@H](Cc1ccc(O)cc1)C(=O)N[C@@H](CCCNC(=N)N)C(=O)N[C@@H](CCCNC(=N)N)C(=O)N[C@@H](CS)C(=O)N[C@@H](CC(N)=O)C(=O)O)C(C)C` [AA139] (H-GFCWYVCARRNGARVCYRRCN-OH; N-terminus and C-terminus assumed), for which the MIC in [8] is 250.0 µg/mL (≈ 97.9 µM); in assay [1] it was 4.0 µg/mL (≈ 1.57 µM); in assay [2] it was 8.0 µg/mL (≈ 3.13 µM); in assay [3] it was 16.0 µg/mL (≈ 6.26 µM); in assay [4], 8.0 µg/mL (≈ 3.13 µM); in assay [5], 16.0 µg/mL (≈ 6.26 µM). Moreover, the results for the MIC in assay [6] and in assay [7] were 8.0 µg/mL (≈ 3.13 µM) and 63.0 µg/mL (≈ 24.7 µM), respectively.
For the molecule `CC[C@H](C)[C@H](NC(=O)CNC(=O)[C@H](CCCCN)NC(=O)[C@H](Cc1ccc(O)cc1)NC(=O)[C@H](CS)NC(=O)[C@@H](NC(=O)[C@H](CCCCN)NC(=O)[C@H](Cc1ccccc1)NC(=O)[C@H](CS)NC(=O)[C@H](Cc1c[nH]c2ccccc12)NC(=O)[C@@H](N)CCCNC(=N)N)C(C)C)C(=O)N[C@@H](CS)C(=O)N[C@@H](Cc1ccc(O)cc1)C(=O)N[C@@H](CCCCN)C(=O)N[C@@H](CCCCN)C(=O)N[C@@H](CS)C(=O)N[C@@H](CCCCN)C(=O)O` [RP556] (H-RWCFKVCYKGICYKKCK-OH; N-terminus and C-terminus assumed), the Normalized inhibitory concentration is reported as 2.93 × 10^7 peptide molecules per cell in assay [9], 2.43 × 10^7 peptide molecules per cell in assay [10] and 1.68 × 10^10 peptide molecules per cell in assay [11]. Besides, the MIC in assay [1] is 4.0 µg/mL (≈ 1.85 µM); in [2], 4.0 µg/mL (≈ 1.85 µM); in assay [3], 2.0 µg/mL (≈ 0.927 µM); in [4], 4.0 µg/mL (≈ 1.85 µM); in assay [5] it was 2.0 µg/mL (≈ 0.927 µM); in assay [6] it was 1.0 µg/mL (≈ 0.464 µM). Besides, the MIC in assay [7] is 2.0 µg/mL (≈ 0.927 µM).
With KKIAKKFWKKFWKFWPKFWKIFKK [R14], the MIC in [8] was 63.0 µg/mL; in assay [1], 16.0 µg/mL; in [2] it was 16.0 µg/mL; in [3], 4.0 µg/mL; in assay [4] it was 4.0 µg/mL; in assay [5] it was 8.0 µg/mL. Besides, the MIC is 8.0 µg/mL in [6] and 1.0 µg/mL in assay [7].
Regarding IAKKFWKKFWKFWKIFKKIA [R12], the MIC was 63.0 µg/mL in assay [8]; 8.0 µg/mL in assay [1]; 31.0 µg/mL in [2]; 4.0 µg/mL in assay [3]; 31.0 µg/mL in [4]; 16.0 µg/mL in [5]. Moreover, the values for the MIC in assay [6] and in [7] were 8.0 µg/mL and 0.5 µg/mL, respectively.
